According to patent US20220125839A1, “COMBINATION OF T-CELL THERAPY AND TARGETED THERAPY FOR TREATING THERAPY-RESISTANT MELANOMA WITH MUTATIONS IN THE BRAF GENE” (H. LEE MOFFITT CANCER CENTER AND RESEARCH INSTITUTE, INC., priority 2019, published 2022):

What was measured:
[1] = test system: lung cancer and lymphoma; conditions: models of lung cancer and lymphoma; cited from earlier work
[2] = test system: BRAFV600E mutant melanoma; conditions: patients with BRAFV600E mutant melanoma; cited from earlier work
[3] = test system: M6PR; assay: M6PR expression by flow cytometry in different melanoma cell lines treated with dabrafenib; assay type: cell-based, human; conditions: 16 hr, 1 μM or 5 μM
Description: FIGS. 4A and 4B show WM35 cells resistant to PLX4720. […] Cell viability was measured in experimental replicates in MTT test after 2 and 4 days of treatment. Mean and SD are shown. FIG. 4B show the effect of Dabrafenib on the expression of M6PR. Indicated cells were treated with dabrafenib for 16 hr (1 μM or 5 μM) and M6PR expression was evaluated by flow cytometry. Mean and SD are shown. P values were calculated using two-sided Student's t-test; *-p<0.05; ** p<0.01; ***-p<0.001; ****-p<0.0001 from DMSO treated controls.
M6PR expression levels were detected by flow cytometry. Cells were incubated with Aqua dead cell staining kit (Thermo Fischer Scientific; Cat. no. L34957) for 15 min at 4° C., followed by staining with Alexa Fluor 647-conjugated mouse antibody specific for human IGF2R/M6PR (BD Biosciences; Cat. no. 565105; clone no. MEM-238) or its isotype (BD Biosciences; Cat. no. 557732; clone no. MOPC-21) at 4° C. for 20 minutes. Cells were fixed using 1% paraformaldehyde for 20 minutes at 4° C. before running them on LSR14. Data was analyzed by FlowJo software (Tree Star).

Structure (SMILES) | effect on anti-tumor effect of immunotherapy [1] | clinical responses [2] | expression of M6PR [3]
N.N.[Cl][Pt][Cl] [cisplatin] | potentiate the anti-tumor effect of immunotherapy via up-regulation of M6PR on the tumor cell surface | – | –
CC(C)(C)c1nc(-c2cccc(NS(=O)(=O)c3c(F)cccc3F)c2F)c(-c2ccnc(N)n2)s1 [dabrafenib] | – | impressive clinical responses | substantial up-regulation of the receptor
COc1cccc2c1C(=O)c1c(O)c3c(c(O)c1C2=O)C[C@@](O)(C(=O)CO)C[C@@H]3O[C@H]1C[C@H](N)[C@H](O)[C@H](C)O1 [doxorubicin] | potentiate the anti-tumor effect of immunotherapy via up-regulation of M6PR on the tumor cell surface | – | –
CC(=O)O[C@H]1C(=O)[C@@]2(C)[C@H]([C@H](OC(=O)c3ccccc3)[C@]3(O)C[C@H](OC(=O)[C@H](O)[C@@H](NC(=O)c4ccccc4)c4ccccc4)C(C)=C1C3(C)C)[C@]1(OC(C)=O)CO[C@@H]1C[C@@H]2O [paclitaxel] | potentiate the anti-tumor effect of immunotherapy via up-regulation of M6PR on the tumor cell surface | – | –
